{"source": "paper PMC9721424", "about": "“Novel N-methylsulfonyl-indole derivatives: biological activity and COX-2/5-LOX inhibitory effect with improved gastro protective profile and reduced cardio vascular risks” (Journal of Enzyme Inhibition and Medicinal Chemistry, 2022)", "key": {"COX-2": {"target": "T1, COX-2 (Ovis aries, UniProt P79208)", "T1 sequence (P79208 17-603)": "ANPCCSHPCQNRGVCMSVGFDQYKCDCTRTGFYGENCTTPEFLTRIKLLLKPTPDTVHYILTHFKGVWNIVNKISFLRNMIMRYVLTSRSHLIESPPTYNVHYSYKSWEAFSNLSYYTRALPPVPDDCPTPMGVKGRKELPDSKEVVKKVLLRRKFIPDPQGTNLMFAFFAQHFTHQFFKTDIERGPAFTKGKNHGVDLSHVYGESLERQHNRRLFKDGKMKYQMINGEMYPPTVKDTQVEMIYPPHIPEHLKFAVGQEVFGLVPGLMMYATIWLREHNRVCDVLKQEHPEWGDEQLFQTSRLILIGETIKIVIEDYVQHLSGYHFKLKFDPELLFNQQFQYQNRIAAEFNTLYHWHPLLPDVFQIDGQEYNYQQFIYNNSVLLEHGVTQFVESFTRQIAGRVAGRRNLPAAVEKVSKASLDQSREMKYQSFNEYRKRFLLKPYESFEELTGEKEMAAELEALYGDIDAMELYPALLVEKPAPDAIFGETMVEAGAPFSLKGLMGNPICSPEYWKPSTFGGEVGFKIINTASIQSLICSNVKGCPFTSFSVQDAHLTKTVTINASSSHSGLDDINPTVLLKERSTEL", "test": "COX-2 inhibition, enzyme immune assay (EIA) kit", "type": "biochemical, ovine", "settings": "for S.I (IC50 COX-1/IC50 COX-2): COX-2 selectivity index; for SI: lab report, COX1/COX2"}, "[1]": {"system": "Escherichia coli (E. coli) (ATCC 25922)", "test": "Disc diffusion antimicrobial screening, E. coli", "type": "cell-based", "settings": "for antibacterial activity against E. coli: 100 µg/disc", "procedure": "All compounds were screened for their antimicrobial activity at the Microbiology and Immunology Department, Faculty of Pharmacy, Beni-Suef University. The antimicrobial activity screening was carried out using the disc diffusion method, as described earlier, with some adjustments.\nFor each indicator microbe, a solution of half McFarland turbidity was prepared in sterile saline, followed by surface streaking of the strains on Mueller-Hinton agar with a sterile cotton swab. Then, sterile filter paper discs (5 mm diameter) preloaded with 100 µg of each compound were applied to the surface of the pre-inoculated plates. Then, the plates were chilled at 4 °C for 100 min before being incubated overnight at the proper temperature for microbial growth. Finally, the diameter of the inhibition zones around each disc was measured to evaluate the antimicrobial activity of the compounds. Ciprofloxacin was used as a standard antibacterial agent at a concentration of 20 µg/disc. Furthermore, DMSO-loaded discs were used as a negative control."}, "ovine COX-1": {"target": "T2, ovine COX-1 (Ovis aries, UniProt P05979)", "T2 sequence (P05979 25-600)": "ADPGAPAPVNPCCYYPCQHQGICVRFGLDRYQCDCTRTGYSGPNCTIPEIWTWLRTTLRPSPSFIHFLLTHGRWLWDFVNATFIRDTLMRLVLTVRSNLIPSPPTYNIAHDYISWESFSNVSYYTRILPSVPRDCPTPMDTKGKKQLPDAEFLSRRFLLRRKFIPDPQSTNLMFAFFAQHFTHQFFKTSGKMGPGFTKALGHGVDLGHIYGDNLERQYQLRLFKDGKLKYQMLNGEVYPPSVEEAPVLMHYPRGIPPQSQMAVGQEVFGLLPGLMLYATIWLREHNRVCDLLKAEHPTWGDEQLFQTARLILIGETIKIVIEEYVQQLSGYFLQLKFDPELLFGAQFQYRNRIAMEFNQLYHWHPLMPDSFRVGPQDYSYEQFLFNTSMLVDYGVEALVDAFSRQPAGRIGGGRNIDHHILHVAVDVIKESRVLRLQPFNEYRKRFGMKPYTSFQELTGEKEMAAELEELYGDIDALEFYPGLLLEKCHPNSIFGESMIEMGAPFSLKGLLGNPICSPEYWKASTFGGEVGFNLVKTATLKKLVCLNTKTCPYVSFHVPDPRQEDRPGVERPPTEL", "test": "COX-1 inhibition, enzyme immune assay (EIA) kit", "from_the_text": "Colorimetric enzyme immunoassay (EIA) kits were done to screen for the isozyme-specific inhibition."}, "stomach": {"system": "stomach", "test": "Histopathological examination of stomach", "type": "in vivo, rats", "settings": "rats, H&E stain", "procedure": "In brief, the stomachs of each animal group’s rat were fixed in 10% neutral buffered formalin for 48 h. The sections were then dehydrated, cleared, fixed in paraffin, sectioned ([…]), and stained with H&E stain."}, "5-LOX enzyme": {"target": "T3, 5-LOX enzyme (Homo sapiens, UniProt P09917)", "T3 construct": "purchased Cayman Chemical K980-100", "T3 sequence (P09917 1-674)": "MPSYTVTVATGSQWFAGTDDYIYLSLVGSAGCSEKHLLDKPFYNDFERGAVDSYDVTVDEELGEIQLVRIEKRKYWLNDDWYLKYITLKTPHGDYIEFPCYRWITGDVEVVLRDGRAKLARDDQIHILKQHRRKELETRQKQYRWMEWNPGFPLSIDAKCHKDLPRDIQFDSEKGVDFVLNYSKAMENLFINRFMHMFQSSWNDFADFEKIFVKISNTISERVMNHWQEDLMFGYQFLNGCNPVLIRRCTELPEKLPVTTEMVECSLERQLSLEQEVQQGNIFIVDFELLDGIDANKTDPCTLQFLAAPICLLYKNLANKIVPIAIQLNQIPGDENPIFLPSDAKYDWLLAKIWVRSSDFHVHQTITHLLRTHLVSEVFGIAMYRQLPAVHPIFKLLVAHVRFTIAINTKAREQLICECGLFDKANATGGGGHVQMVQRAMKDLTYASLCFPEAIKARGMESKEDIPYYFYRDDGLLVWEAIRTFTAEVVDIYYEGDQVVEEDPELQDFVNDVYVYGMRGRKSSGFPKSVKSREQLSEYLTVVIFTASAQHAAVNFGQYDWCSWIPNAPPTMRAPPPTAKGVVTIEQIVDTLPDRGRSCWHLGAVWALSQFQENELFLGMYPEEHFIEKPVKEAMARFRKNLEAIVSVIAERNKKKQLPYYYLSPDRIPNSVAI", "test": "5-LOX inhibition, Human Lipoxygenase Inhibitor Screening Assay (EIA) kit", "type": "biochemical", "procedure": "The ability of the test compounds to inhibit the 5-LOX enzyme (IC50 value, μM) was detected using the Cayman Human Lipoxygenase Inhibitor Screening Assay (EIA) kit (catalog no. K980-100, Cayman Chemical). The IC50 values of test compounds were measured in µM according to the manufacturer’s instructions and reported method."}}, "note": "Values joined by “and” are separate entries in the source; they are usually repeats but may differ in a detail not shown here. Equal values may be shown once. Read-outs that look alike come from different tables or passages of the source.", "data": [{"compound": "COc1ccc(NC(=S)N/N=C/c2cn(S(C)(=O)=O)c3ccccc23)cc1", "note": "[Compound 4e, (E)-N-(4-Methoxyphenyl)-2{[1-(methylsulfonyl)-1H-indol 3yl]methylene}hydrazinecarbothioamide]", "values": [{"measurement": "S.I (IC50 COX-1/IC50 COX-2)", "setting": "COX-2", "result": 30.17}, {"measurement": "SI", "setting": "COX-2", "result": 30.17}, {"measurement": "antibacterial activity against E. coli", "setting": "[1]", "result": "selective antibacterial activity"}, {"measurement": "IC50", "setting": "ovine COX-1; IC50 COX-1", "result": "24.7 ± 0.7", "unit": "µM"}, {"measurement": "COX1 %inh", "setting": "ovine COX-1; conc 0.1 (μM)", "result": 5.87, "unit": "%"}, {"measurement": "COX1 %inh", "setting": "ovine COX-1; conc 1 (μM)", "result": 14.4, "unit": "%"}, {"measurement": "COX1 %inh", "setting": "ovine COX-1; conc 10 (μM)", "result": 28.6, "unit": "%"}, {"measurement": "COX1 %inh", "setting": "ovine COX-1; conc 100 (μM)", "result": 73.5, "unit": "%"}, {"measurement": "stomach histopathology finding", "setting": "stomach", "result": "partial loss of mucous layer with mild superficial erosions"}, {"measurement": "melting point", "result": "214 to 216", "unit": "°C"}, {"measurement": "IC50", "setting": "5-LOX enzyme", "result": "4.08 ± 0.22", "unit": "µM"}, {"measurement": "5-LOX %inh", "setting": "5-LOX enzyme; conc 0.1 (μM)", "result": 17.9, "unit": "%"}, {"measurement": "5-LOX %inh", "setting": "5-LOX enzyme; conc 1 (μM)", "result": 30.9, "unit": "%"}, {"measurement": "5-LOX %inh", "setting": "5-LOX enzyme; conc 10 (μM)", "result": 55.7, "unit": "%"}, {"measurement": "5-LOX %inh", "setting": "5-LOX enzyme; conc 100 (μM)", "result": 85, "unit": "%"}, {"measurement": "IC50", "setting": "5-LOX enzyme; lab report", "result": "4.08 ± 0.22", "unit": "µM"}]}, {"compound": "Cc1ccc(N2C(=O)CSC2=NN=Cc2cn(S(C)(=O)=O)c3ccccc23)cc1", "note": "[Compound 5d]", "values": [{"measurement": "S.I (IC50 COX-1/IC50 COX-2)", "setting": "COX-2", "result": "8.59 and 8.60"}, {"measurement": "SI", "setting": "COX-2", "result": 8.596}, {"measurement": "antibacterial activity against E. coli", "setting": "[1]", "result": "exclusively exhibited bioactivity against E. coli"}, {"measurement": "zone of inhibition at 100 µg/disc", "setting": "[1]; Escherichia coli, ATCC25922, read-out: diameters of inhibition zones", "result": "8 to 15", "unit": "mm"}, {"measurement": "IC50", "setting": "ovine COX-1; IC50 COX1, lab report / text printing uM", "result": "5.79 ± 0.16", "unit": "µM"}, {"measurement": "IC50", "setting": "ovine COX-1; IC50 COX-1", "result": "5.79 ± 0.16", "unit": "µM"}, {"measurement": "COX1 %inh", "setting": "ovine COX-1; conc 0.1 (μM)", "result": 8.83, "unit": "%"}, {"measurement": "COX1 %inh", "setting": "ovine COX-1; conc 1 (μM)", "result": 27.6, "unit": "%"}, {"measurement": "COX1 %inh", "setting": "ovine COX-1; conc 10 (μM)", "result": 53.7, "unit": "%"}, {"measurement": "COX1 %inh", "setting": "ovine COX-1; conc 100 (μM)", "result": 83.6, "unit": "%"}, {"measurement": "stomach histopathology finding", "setting": "stomach", "result": "minimally disrupted mucous layer"}, {"measurement": "melting point", "result": "271 to 273", "unit": "°C"}, {"measurement": "IC50", "setting": "5-LOX enzyme", "result": "1.1 ± 0.06", "unit": "µM"}, {"measurement": "5-LOX %inh", "setting": "5-LOX enzyme; conc 0.1 (μM)", "result": 30.3, "unit": "%"}, {"measurement": "5-LOX %inh", "setting": "5-LOX enzyme; conc 1 (μM)", "result": 47.6, "unit": "%"}, {"measurement": "5-LOX %inh", "setting": "5-LOX enzyme; conc 10 (μM)", "result": 70.6, "unit": "%"}, {"measurement": "5-LOX %inh", "setting": "5-LOX enzyme; conc 100 (μM)", "result": 86.9, "unit": "%"}, {"measurement": "IC50", "setting": "5-LOX enzyme; lab report", "result": "1.1 ± 0.06", "unit": "µM"}]}]}
